From patent EP0678516B1, “Preparation of 2-bromo-5-(2-bromo-2-nitrovinyl)-furan and its use as microcide” (CENTRO DE BIOACTIVOS QUIMICOS DE LA UNIVERSIDAD CENTRAL DE …, priority 1994, dated 1995)
≈ marks a conversion by molar mass, not a printed value.

Legend:
Pseudomonas aeruginosa = test: Experimental infection, implanted sponge method; type: in vivo, mice
Description: The effectiveness of three oil formulations were also tested, at 0.15, 0.2, 0.25% and a control with placebo in mice experimentally infected using implanted sponge method, inoculated with Pseudomonas aeruginosa and Staphylococcus aureus. Recuperation of the animal was between 3 and 4 days of treatment (Tables No. 3 and 3.1).
Read: n = Accumulated from recuperated animals Tr = Recuperation time in days (weighted average) ((n1±1) + ((n2-n1) ±2)+((n3-n2)±3((n4-n3)±4)/n [formula] I,II, III: treated with 2-bromo-5-(2-bromo-2-nitro-vinyl)-furan.

Oral LD50 = type: in vivo, Sprague Dawley rats; settings: taken orally, tragacant gum as vehicle
Text: (§1) Moreover, the anatomopathological elements and the clinical events were characterized during the experiments.

queratoconjunctivitis = test: Effectiveness against bacterial eye diseases, all treated eyes; type: in vivo; settings: 9435 animal eyes, overall
Text: The effectiveness of the active principle against bacterial eye diseases in: 9435 animal eyes affected with queratoconjunctivitis; 8093 of cattle and 1342 of other species (sheep, rabbits, dogs, horses, pigs, cats, guinea-pigs and birds).

Proteus rettgeri = test: In vitro MIC (serial dilution); type: cell-based; settings: Providencia rettgeri
Description: (§2) The antimicrobial sensitivity was first evaluated "in vitro" using the serial dilution method for bacteria and fungi. Other growth methods in agar cultures were included for other species. The liquid and solid mediums used were Mueller-Hinton, Tryptona Soya, Sabouraud Dextrosa, Sabouraud Maltose and other mediums in accordance with the cultural demands of the micro-organisms valued.
(§3) The temperature and incubation period was adjusted to conditions and characteristics of the micro-organisms used.
(§4) The Minimal Inhibitory Concentration (MIC) was calculated in terms of MIC50 and MIC90 in µg/ml.

Sarcina lutea = test: In vitro MIC (serial dilution); type: cell-based; settings: Micrococcus luteus
Description: as §2, §3, §4

Candida guilliermondi = test: In vitro MIC (serial dilution); type: cell-based
Description: as §2, §3, §4

Pasteurella multocida = test: In vitro MIC (serial dilution); type: cell-based
Description: as §2, §3, §4

[1] = test system: Vibrio cholerae ser. Inabu; test: In vitro MIC (serial dilution); type: cell-based
Description: as §2, §3, §4

Proteus vulgaris = test: In vitro MIC (serial dilution); type: cell-based
Description: as §2, §3, §4

Candida tropicalis = test: In vitro MIC (serial dilution); type: cell-based
Description: as §2, §3, §4

Salmonella thyphi = test: In vitro MIC (serial dilution); type: cell-based
Description: as §2, §3, §4

Streptococcus pyogenes = test: In vitro MIC (serial dilution); type: cell-based
Description: as §2, §3, §4

Microsporum gypseum = test: In vitro MIC (serial dilution); type: cell-based; settings: Nannizzia gypsea
Description: as §2, §3, §4

Listeria monocytogenes = test: In vitro MIC (serial dilution); type: cell-based
Description: as §2, §3, §4

Epidermophyton floccasum = test: In vitro MIC (serial dilution); type: cell-based; settings: only one value given
Description: as §2, §3, §4

Moracella bovis = test: In vitro MIC (serial dilution); type: cell-based
Description: as §2, §3, §4

Fusarium sp. = test: In vitro MIC (serial dilution); type: cell-based; settings: read-out: Minimal Inhibitory Concentration (MIC)
Description: as §2, §3, §4

Pseudomonas maltophila = test: In vitro MIC (serial dilution); type: cell-based
Description: as §2, §3, §4

Neisseria meningitidis = test: In vitro MIC (serial dilution); type: cell-based
Description: as §2, §3, §4

Corynebacterium pyogenes = test: In vitro MIC (serial dilution); type: cell-based; settings: Rhodococcus (subgen. Prescottella) equi
Description: as §2, §3, §4

Candida stellatoidea = test: In vitro MIC (serial dilution); type: cell-based; settings: Candida albicans
Description: as §2, §3, §4

Pseudomonas aerguinosa = test: In vitro MIC (serial dilution); type: cell-based
Description: as §2, §3, §4

Streptococcus agalactiae = test: In vitro MIC (serial dilution); type: cell-based
Description: as §2, §3, §4

Candida krusei = test: In vitro MIC (serial dilution); type: cell-based; settings: Pichia kudriavzevii
Description: as §2, §3, §4

Leptospira canicola = test: In vitro MIC (serial dilution); type: cell-based; settings: Leptospira interrogans
Description: as §2, §3, §4

Microsporum canis = test: In vitro MIC (serial dilution); type: cell-based
Description: as §2, §3, §4

[2] = test system: Trichophyton mentagrophytes; test: In vitro MIC (serial dilution); type: cell-based
Description: as §2, §3, §4

Proteus mirabilis = test: In vitro MIC (serial dilution); type: cell-based
Description: as §2, §3, §4

Percutaneous LD50 = type: in vivo, mice OF1; settings: interscapular region, 0.2 ml/10 g of body mass
Text: as §1

[3] = test system: Mycoplasma bovigenitalium; test: In vitro MIC; type: cell-based; settings: Mycoplasmopsis bovigenitalium, single value, MIC50 or MIC90 not stated, read-out: Minimal Inhibitory Concentration (MIC)
Description: as §2, §3, §4

## O=[N+]([O-])C(Br)=Cc1ccc(Br)o1 [Product G-1, 2-bromo-5-(2-bromo-2-nitro-vinyl)-furan]
Pseudomonas aeruginosa; Formula 0.15%, day 3, 10 mice
  Accumulated clinical recuperation: 80.0a %
  Accumulated clinical recuperation, n (recuperated animals): 8
Pseudomonas aeruginosa; Formula 0.15%, day 5, 10 mice
  Accumulated clinical recuperation: 100.0a %
  Accumulated clinical recuperation, n (recuperated animals): 10
Pseudomonas aeruginosa; Formula 0.15%, day 7, 10 mice
  Accumulated clinical recuperation: 100.0%
  Accumulated clinical recuperation, n (recuperated animals): 10
Pseudomonas aeruginosa; Formula 0.2%, day 3, 10 mice
  Accumulated clinical recuperation: 80.0a %
  Accumulated clinical recuperation, n (recuperated animals): 8
Pseudomonas aeruginosa; Formula 0.2%, day 5, 10 mice
  Accumulated clinical recuperation: 100.0a %
  Accumulated clinical recuperation, n (recuperated animals): 10
Pseudomonas aeruginosa; Formula 0.2%, day 7, 10 mice
  Accumulated clinical recuperation: 100.0%
  Accumulated clinical recuperation, n (recuperated animals): 10
Pseudomonas aeruginosa; Formula 0.25%, day 3, 10 mice
  Accumulated clinical recuperation: 50.0a %
  Accumulated clinical recuperation, n (recuperated animals): 5
Pseudomonas aeruginosa; Formula 0.25%, day 5, 10 mice
  Accumulated clinical recuperation: 90.0a %
  Accumulated clinical recuperation, n (recuperated animals): 9
Pseudomonas aeruginosa; Formula 0.25%, day 7, 10 mice
  Accumulated clinical recuperation: 100.0%
  Accumulated clinical recuperation, n (recuperated animals): 10
Oral LD50; female Sprague Dawley rats
  Lethal Average Dose (LD50): 1515.5 mg/kg of body mass
Oral LD50; male Sprague Dawley rats
  Lethal Average Dose (LD50): 1857 mg/kg of body mass
queratoconjunctivitis
  clinical recuperation: 89,6%
Proteus rettgeri
  MIC50: 2.78 µg/mL (≈ 9.36 µM)
  MIC90: 9.92 µg/mL (≈ 33.4 µM)
Sarcina lutea
  MIC50: 1.56 µg/mL (≈ 5.25 µM)
  MIC90: 4.43 µg/mL (≈ 14.9 µM)
Candida guilliermondi
  MIC50: 1.92 µg/mL (≈ 6.47 µM)
  MIC90: 2.84 µg/mL (≈ 9.57 µM)
Pasteurella multocida
  MIC50: 3.59 µg/mL (≈ 12.1 µM)
  MIC90: 9.47 µg/mL (≈ 31.9 µM)
[1]; read-out: MIC50 values
  MIC50: 5.87 µg/mL (≈ 19.8 µM)
[1]; read-out: MIC90 values
  MIC90: 17.7 µg/mL (≈ 59.5 µM)
Proteus vulgaris
  MIC50: 5.95 µg/mL (≈ 20 µM)
  MIC90: 19.8 µg/mL (≈ 66.5 µM)
Candida tropicalis
  MIC50: 2.78 µg/mL (≈ 9.36 µM)
  MIC90: 5.29 µg/mL (≈ 17.8 µM)
Salmonella thyphi
  MIC50: 2.5 µg/mL (≈ 8.42 µM)
  MIC90: 10 µg/mL (≈ 33.7 µM)
Streptococcus pyogenes
  MIC50: 1.86 µg/mL (≈ 6.26 µM)
  MIC90: 4.42 µg/mL (≈ 14.9 µM)
Microsporum gypseum
  MIC50: 12.5 µg/mL (≈ 42.1 µM)
  MIC90: 20.8 µg/mL (≈ 70 µM)
Listeria monocytogenes
  MIC50: 3.13 µg/mL (≈ 10.5 µM)
  MIC90: 5.44 µg/mL (≈ 18.3 µM)
Epidermophyton floccasum
  MIC50: 12.5 µg/mL (≈ 42.1 µM)
Moracella bovis
  MIC50: 2.63 µg/mL (≈ 8.86 µM)
  MIC90: 5.08 µg/mL (≈ 17.1 µM)
Fusarium sp.
  MIC: 50 µg/mL (≈ 168 µM)
Pseudomonas maltophila
  MIC50: 29.7 µg/mL (≈ 100 µM)
  MIC90: 45.1 µg/mL (≈ 152 µM)
Neisseria meningitidis
  MIC50: 1.84 µg/mL (≈ 6.2 µM)
  MIC90: 3.47 µg/mL (≈ 11.7 µM)
Corynebacterium pyogenes
  MIC50: 3.56 µg/mL (≈ 12 µM)
  MIC90: 5.59 µg/mL (≈ 18.8 µM)
Candida stellatoidea
  MIC50: 1.92 µg/mL (≈ 6.47 µM)
  MIC90: 3.56 µg/mL (≈ 12 µM)
Pseudomonas aerguinosa
  MIC50: 7.84 µg/mL (≈ 26.4 µM)
  MIC90: 15 µg/mL (≈ 50.4 µM)
Streptococcus agalactiae
  MIC50: 1.99 µg/mL (≈ 6.7 µM)
  MIC90: 4.55 µg/mL (≈ 15.3 µM)
Candida krusei
  MIC50: 1.92 µg/mL (≈ 6.47 µM)
  MIC90: 2.84 µg/mL (≈ 9.57 µM)
Leptospira canicola
  MIC50: 9.36 µg/mL (≈ 31.5 µM)
  MIC90: 15.4 µg/mL (≈ 51.8 µM)
Microsporum canis
  MIC50: 7.91 µg/mL (≈ 26.6 µM)
  MIC90: 40.6 µg/mL (≈ 137 µM)
[2]
  MIC90: 40.6 µg/mL (≈ 137 µM)
[2]; read-out: MIC50 values
  MIC50: 17.7 µg/mL (≈ 59.5 µM)
Proteus mirabilis
  MIC50: 9.36 µg/mL (≈ 31.5 µM)
  MIC90: 24.1 µg/mL (≈ 81.3 µM)
Percutaneous LD50; mice OF1 females
  LD50: 9.8%
Percutaneous LD50; mice OF1 males
  LD50: 12.1%
[3]
  MIC: 50 µg/mL (≈ 168 µM)
